The values that follow are results of earlier work, collected in patent US20110171717A1, “METHOD FOR ENHANCING […]” (priority 2006, published 2011).

For the series, the system named is polymerase. The conditions noted are these: cited from earlier work; for effect on polymerase activity: known from Weyant et al., BioTechniques 1990.

In the case of `CCCCCCCCCCCC(=O)N(C)CC(=O)[O-].[Na+]` [sodium N-lauroyl sarcosinate, N-Lauroylsarcosine-sodium salt], the “effect on polymerase activity” value is on record as “inhibit a polymerase activity”.

In the case of `CCCCCCCCCCCCOS(=O)(=O)[O-].[Na+]` [SDS, Sodium dodecyl sulfate], the “effect on polymerase activity” value was “inhibit a polymerase activity”. Besides, under “e.g., 0.01% of SDS”, the “effect on polymerase activity at low concentration” value is listed as “inhibit a polymerase activity even at low concentrations”. Consider Sodium deoxycholate, for which the “effect on polymerase activity” value is “inhibit a polymerase activity”.
